In brackets after ≈: the same amount, converted by molar mass.
Legend:
Assay in all cases: MIC, agar incorporation method
S. aureus ATCC 25923 = assay type: cell-based, Staphylococcus aureus; settings: S. No. 1, organism cell empty
S. aureus ATCC29213 = assay type: cell-based, Staphylococcus aureus; settings: S. No. 2, S. aureus ATCC29213
S. aureus SG 511 = assay type: cell-based, Staphylococcus aureus; settings: S. No. 3, S. aureus SG 511
S. aureus (MRSA) 21299 = assay type: cell-based, Staphylococcus aureus; settings: S. No. 5, S. aureus (MRSA) 21299
[1] = test system: S. aureus (MRSA 33) Cipro R; assay type: cell-based, Staphylococcus aureus; settings: S. No. 7, S. aureus (MRSA 33) Cipro R
(MRSA) 562 = assay type: cell-based, Staphylococcus aureus; settings: S. No. 8, (MRSA) 562
S. aureus (Smith 49951) = assay type: cell-based, Staphylococcus aureus; settings: S. No. 9, S. aureus (Smith 49951)
[2] = test system: S. epidermidis (MRSE)32965; assay type: cell-based, Staphylococcus epidermidis; settings: S. No. 13, S. epidermidis (MRSE)32965
S. haemo ATCC 29970 = assay type: cell-based; settings: S. No. 15, S. haemo ATCC 29970
E. faecalis 29212 = assay type: cell-based; settings: S. No. 17, E. faecalis 29212
E. faecium 398(VRE) = assay type: cell-based, Enterococcus faecium; settings: S. No. 22, E. faecium 398(VRE)
E. durans 581 = assay type: cell-based; settings: S. No. 24, E. durans 581
E. coli 25922 = assay type: cell-based; settings: S. No. 25, E. coli 25922
P. aeruginosa ATCC 27853 = assay type: cell-based; settings: S. No. 28, P. aeruginosa ATCC 27853
[3] = test system: Serratia marcescens 12999; assay type: cell-based; settings: S. No. 29, Serratia marcescens 12999
Acinetobacter 9956 = assay type: cell-based; settings: S. No. 30, Acinetobacter 9956
S. pneumoniae AB4 = assay type: cell-based, Streptococcus pneumoniae; settings: S. No. 33, S. pneumoniae AB4
S. pneumoniae CS1221 = assay type: cell-based, Streptococcus pneumoniae; settings: S. No. 34, S. pneumoniae CS1221
S. pneumoniae AB 10 = assay type: cell-based, Streptococcus pneumoniae; settings: S. No. 35, S. pneumoniae AB 10
S. pneumoniae AB 31 = assay type: cell-based, Streptococcus pneumoniae; settings: S. No. 36, S. pneumoniae AB 31
S. pneumoniae AB 14 = assay type: cell-based, Streptococcus pneumoniae; settings: S. No. 37, S. pneumoniae AB 14
S. pneumoniae 217 = assay type: cell-based, Streptococcus pneumoniae; settings: S. No. 38, S. pneumoniae 217
S. pneumoniae AB 16 = assay type: cell-based, Streptococcus pneumoniae; settings: S. No. 39, S. pneumoniae AB 16
S. pneumoniae AB 17 = assay type: cell-based, Streptococcus pneumoniae; settings: S. No. 40, S. pneumoniae AB 17
S. pneumoniae AB 21 = assay type: cell-based, Streptococcus pneumoniae; settings: S. No. 41, S. pneumoniae AB 21
S. pneumoniae CS 1687 = assay type: cell-based, Streptococcus pneumoniae; settings: S. No. 44, S. pneumoniae CS 1687
S. pneumoniae AB 25 = assay type: cell-based, Streptococcus pneumoniae; settings: S. No. 45, S. pneumoniae AB 25
S. pneumoniae AB 29 = assay type: cell-based, Streptococcus pneumoniae; settings: S. No. 46, S. pneumoniae AB 29
S. pneumoniae AB 34 = assay type: cell-based, Streptococcus pneumoniae; settings: S. No. 49, S. pneumoniae AB 34
S. pneumoniae ATCC 6303 = assay type: cell-based, Streptococcus pneumoniae; settings: S. No. 50, S. pneumoniae ATCC 6303
S. pyogenes 19615 = assay type: cell-based, Streptococcus pyogenes; settings: S. No. 51, S. pyogenes 19615
S. pyogenes 20361 = assay type: cell-based, Streptococcus pyogenes; settings: S. No. 53, S. pyogenes 20361
S pneumoniae 1294. = assay type: cell-based, Streptococcus pneumoniae; settings: S. No. 55, S pneumoniae 1294.
S. pneumoniae 1275 = assay type: cell-based, Streptococcus pneumoniae; settings: S. No. 57, S. pneumoniae 1275
Moraxella M1 = assay type: cell-based; settings: S. No. 58, Moraxella M1
Moraxella cata. M2 = assay type: cell-based; settings: S. No. 59, Moraxella cata. M2

| Structure (SMILES) | MIC (S. aureus ATCC 25923) [mg/L] | MIC (S. aureus ATCC29213) [mg/L] | MIC (S. aureus SG 511) [mg/L] | MIC (S. aureus (MRSA) 21299) [mg/L] | MIC [1] [mg/L] | MIC ((MRSA) 562) [mg/L] | MIC (S. aureus (Smith 49951)) [mg/L] | MIC [2] [mg/L] | MIC (S. haemo ATCC 29970) [mg/L] | MIC (E. faecalis 29212) [mg/L] | MIC (E. faecium 398(VRE)) [mg/L] | MIC (E. durans 581) [mg/L] | MIC (E. coli 25922) [mg/L] | MIC (P. aeruginosa ATCC 27853) [mg/L] | MIC [3] [mg/L] | MIC (Acinetobacter 9956) [mg/L] | MIC (S. pneumoniae AB4) [mg/L] | MIC (S. pneumoniae CS1221) [mg/L] | MIC (S. pneumoniae AB 10) [mg/L] | MIC (S. pneumoniae AB 31) [mg/L] | also measured |
| --- | --- | --- | --- | --- | --- | --- | --- | --- | --- | --- | --- | --- | --- | --- | --- | --- | --- | --- | --- | --- | --- |
| CC(=O)NC[C@H]1CN(c2ccc(N3CCN(c4cc(C(OC(C)=O)OC(C)=O)sc4[N+](=O)[O-])CC3)c(F)c2)C(=O)O1 [Compound No. 5, (S)—N-[[3-[3-Fluoro-4-[4-{3-thienyl(2-nitro)-5-acetyloxy}methylacetate]-1-piperazinyl]phenyl]-2-oxo-5-oxazolidinyl]acetamide] | 0.5 (≈ 0.842 µM) | 0.25 (≈ 0.421 µM) | 0.25 (≈ 0.421 µM) | 0.25 (≈ 0.421 µM) | 0.25 (≈ 0.421 µM) | 0.25 (≈ 0.421 µM) | 0.25 (≈ 0.421 µM) | <0.06 | <0.06 | 2 (≈ 3.37 µM) | 1 (≈ 1.68 µM) | 2 (≈ 3.37 µM) | >8 | >8 | >8 | >8 | 0.5 (≈ 0.842 µM) | 0.5 (≈ 0.842 µM) | 0.25 (≈ 0.421 µM) | 0.5 (≈ 0.842 µM) | MIC (S. pneumoniae AB 14): 0.5 mg/L (≈ 0.842 µM); MIC (S. pneumoniae 217): 0.5 mg/L (≈ 0.842 µM); MIC (S. pneumoniae AB 16): 0.5 mg/L (≈ 0.842 µM); MIC (S. pneumoniae AB 17): 0.5 mg/L (≈ 0.842 µM); MIC (S. pneumoniae AB 21): 0.5 mg/L (≈ 0.842 µM); MIC (S. pneumoniae CS 1687): 0.5 mg/L (≈ 0.842 µM); MIC (S. pneumoniae AB 25): 0.5 mg/L (≈ 0.842 µM); MIC (S. pneumoniae AB 29): 0.5 mg/L (≈ 0.842 µM); MIC (S. pneumoniae AB 34): 0.5 mg/L (≈ 0.842 µM); MIC (S. pneumoniae ATCC 6303): 0.5 mg/L (≈ 0.842 µM); MIC (S. pyogenes 19615): 0.5 mg/L (≈ 0.842 µM); MIC (S. pyogenes 20361): 0.5 mg/L (≈ 0.842 µM); MIC (S pneumoniae 1294.): 0.5 mg/L (≈ 0.842 µM); MIC (S. pneumoniae 1275): 0.25 mg/L (≈ 0.421 µM); MIC (Moraxella M1): 4 mg/L (≈ 6.74 µM); MIC (Moraxella cata. M2): 2 mg/L (≈ 3.37 µM) |
| CC(=O)NC[C@H]1CN(c2ccc(N3CCN(c4ccc([N+](=O)[O-])s4)CC3)cc2)C(=O)O1 [Compound No. 6, (S)—N-[[3-[4-[N-1-(5-nitro-2-thienyl)piperazinyl]-phenyl]-2-oxo-5-oxazolidinyl]-methyl]-acetamide] | 2 (≈ 4.49 µM) | 2 (≈ 4.49 µM) | 2 (≈ 4.49 µM) | 1 (≈ 2.24 µM) | 1 (≈ 2.24 µM) | 1 (≈ 2.24 µM) | 1 (≈ 2.24 µM) | 1 (≈ 2.24 µM) | 1 (≈ 2.24 µM) | 1 (≈ 2.24 µM) | 1 (≈ 2.24 µM) | 1 (≈ 2.24 µM) | >16 | >16 | >16 | >16 | 0.25 (≈ 0.561 µM) | 0.25 (≈ 0.561 µM) | 0.25 (≈ 0.561 µM) | 0.5 (≈ 1.12 µM) | MIC (S. pneumoniae AB 14): <0.125 mg/L; MIC (S. pneumoniae 217): 0.25 mg/L (≈ 0.561 µM); MIC (S. pneumoniae AB 16): 0.5 mg/L (≈ 1.12 µM); MIC (S. pneumoniae AB 17): 0.25 mg/L (≈ 0.561 µM); MIC (S. pneumoniae AB 21): 0.5 mg/L (≈ 1.12 µM); MIC (S. pneumoniae CS 1687): 0.5 mg/L (≈ 1.12 µM); MIC (S. pneumoniae AB 25): 0.5 mg/L (≈ 1.12 µM); MIC (S. pneumoniae AB 29): 0.5 mg/L (≈ 1.12 µM); MIC (S. pneumoniae AB 34): 0.5 mg/L (≈ 1.12 µM); MIC (S. pneumoniae ATCC 6303): 0.5 mg/L (≈ 1.12 µM); MIC (S. pyogenes 19615): 0.5 mg/L (≈ 1.12 µM); MIC (S. pyogenes 20361): 0.5 mg/L (≈ 1.12 µM); MIC (S pneumoniae 1294.): 0.5 mg/L (≈ 1.12 µM); MIC (S. pneumoniae 1275): 0.25 mg/L (≈ 0.561 µM); MIC (Moraxella M1): >16 mg/L; MIC (Moraxella cata. M2): 8 mg/L (≈ 18 µM) |

— US20060293307A1, “Oxazolidinone derivatives as antimicrobials” (priority 2002, published 2006)
